Assay results as given in US9297012B2, “Methods and compositions for inducing deregulation of EPHA7 and ERK phosphorylation in human acute leukemias” (The Ohio State University Research Foundation, priority 2007, dated 2016).

How the values were obtained:
Format in all cases: cell-based, human
[1] = system: RS4;11 cells; test: FACS analysis (subG1), RS4;11; settings: 1 μM
Method: (§1) At each time point, the cells were subjected to MTT assay (left), Caspase 3 activity assay (middle) and FACS analysis (right). The results of MTT and Caspase 3 activity assays are calculated as a ratio against the value for DMSO-treated cells. Vertical bar in each column indicates standard deviation determined by triplicate assays.
(§2) To determine the cause for the reduction in cell numbers, the 5-ITU-treated cells were subjected to assays determining apoptotic cell death (caspase 3 activity assay and FACS analysis).
(§3) Methods including Recombinant protein expression in K562 and in KG1 cells, RNA interference, Western blot analysis, and MTT assay, Caspase 3 Activity assay and FACS analysis are available in online Supporting Information.

[2] = system: RS4;11 cells; test: Caspase 3 activity assay, RS4;11; settings: 1 μM, 24 hr, ratio vs DMSO
Method: as §1, §2, §3

[3] = system: RS4;11 cells; test: MTT assay, RS4;11; settings: RS4;11, t(4;11); 1 μM; 24, 48 and 72 hr; ratio vs DMSO
Method: as §1, §3

[4] = system: 380 cells; test: MTT assay, 380; settings: 380 control cells lacking ALL1 abnormality; 1 μM; 24, 48 and 72 hr
Method: as §1, §3

[5] = system: SEMK2 cells; test: Caspase 3 activity assay, SEMK2; settings: 1 μM, 24 hr, ratio vs DMSO
Method: as §1, §2, §3

[6] = system: 697 cells; test: MTT assay, 697; settings: 697 control cells lacking ALL1 abnormality; 1 μM; 24, 48 and 72 hr
Method: as §1, §3

[7] = system: SEMK2 cells; test: MTT assay, SEMK2; settings: SEMK2, t(4;11); 1 μM; 24, 48 and 72 hr; ratio vs DMSO
Method: as §1, §3

[8] = system: SEMK2 cells; test: FACS analysis (subG1), SEMK2; settings: 1 μM
Method: as §1, §2, §3

How did the “cells at the subG1 phase (FACS)” value [1] turn out when `Nc1ncnc2c1c(I)cn2[C@@H]1O[C@H](CO)[C@@H](O)[C@H]1O` [5-ITU, 5-iodotubercidin] was run?
Its value is “high proportion”.

What about the “caspase 3 activity” value [2] of the same molecule?
The value was “Increased caspase 3 activity”.

And the “cell number (MTT assay)” value [3]?
The value was “reduction in numbers”.

What about the “cell number (MTT assay)” value [4] of the same molecule?
The value was “no diminution in the number”.

What about the “caspase 3 activity” value [5] of the same molecule?
Its value is “Increased caspase 3 activity”.

And the “cell number (MTT assay)” value [6]?
Its value is “no diminution in the number”.

And the “cell number (MTT assay)” value [7]?
The value was “reduction in numbers”.

What about the “cells at the subG1 phase (FACS)” value [8] of the same molecule?
The value was “high proportion”.
